Where “and” joins values, the source holds several entries; their conditions need not be identical. Equal values may be shown once.
What was measured:
[1] = target: T1, αS monomer-αS fibers interaction (Homo sapiens, UniProt P37840); assay: HSQC NMR of 15N-αS monomer with αS fibers with or without NS132; assay type: binding; details: 70 μM 15N-αS + αS fibers, equimolar NS132, 24 h
T1 construct: purchased rpeptide, Bogart, GA
Experimental: We also employed 2D NMR HSQC for atomic-level insights into fibers-catalyzed aggregation of αS and its inhibition by NS132. […] We have also shown that NS132 specifically interacts with the N-terminal residues of αS. […] We incubated preformed fibers of αS with 70 μM ^15N-^1H-uniformly labeled αS monomer and used HSQC NMR to characterize the kinetics of fibers-catalyzed aggregation of αS on a molecular level. […] Also, αS fibers interact specifically with four αS sequences on the N-terminus, including residues 3-23, 40-45, 49-59, and 75-84 (Fig. 4b,c). There was an induction of a secondary structure in the αS monomer, indicated by the spreading of the amide peaks toward the ^1H resonances (Fig. 4c, green). […] Even after 40 h, there were fewer and smaller changes in the volume intensity of the amide peaks of ^15N-^1H-uniformly labeled αS monomer in the presence of NS132 (Fig. 4f).
For the HSQC experiments titrating NS132 into ^15N αS, the same experimental conditions were used as above. Incrementally, NS132 was added to a single ^15N αS solution, mixed, kept at r.t. for 10 min and HSQC was recorded under the conditions stated above. For HSQC experiments containing pre-formed fibrils (PFF) of αS, 5.4 eq. of PFF solution (500 μM) was added to monomeric ^15N αS solution, and the spectra was recorded as previously stated.

[2] = test system: HEK293 cells stably expressing αS-A53T-YFP; assay: ProteoStat dye assay and confocal imaging, ligand post treatment, αS fibers templated intracellular aggregation; assay type: cell-based, human
Experimental: To test the antagonist activity of NS163 against intracellular αS aggregation, we utilized HEK293 cells, which stably express αS-A53T-YFP[23],[24],[50]. The endogenous monomeric αS-A53T-YFP template into fibers when transfected with exogenously added αS fibers in the presence of Lipofectamine 3000 (Fig. 3a)[23],[24],[50]. In this assay, preformed fibers of αS (5 µM monomer concentration) were introduced to the HEK cells, followed by the introduction of NS163 to the cells after 8 h, which is the time required for the internalization of aS fibers, as we have shown recently. The HEK cells were incubated for an additional […], which is the total time (24 h) required for the complete maturation of aS inclusions in the HEK cells. To test the effect of the NS163 on the intracellular inclusions (αS-A53T-YFP), we used confocal imaging and a ProteoStat dye-based assay recently developed in our lab[24]. […] NS163 was able to reduce the intracellular inclusions of αS by 76% and 90% at 10 µM and 25 µM, respectively, measured using the ProteoStat dye-based assay (Fig. 5h, +NS163). […] To test their antagonist activity against intracellular αS aggregation, we first determined the cell permeability of the tripyridyls using the PAMPA (Fig. 5a, Supplementary Fig. 18a). […]

αS fibers (PMCA) = target: T2, αS fibers (PMCA) (Homo sapiens, UniProt P37840); assay: Protein misfolding cyclic amplification assay (PMCA), ThT readout; assay type: biochemical
T2 construct: made in house; host or cells: E. coli BL21(DE3)
Experimental: The PMCA assay was performed according to a previously described protocol. Briefly, an αS solution (100 µM) was prepared in PBS and 60 µL of the solution was placed in a 200 µL Polymerase Chain Reaction (PCR) tube and the mixture was subjected to five 24 h cycles of 1 min shaking (1200 rpm) and 29 min incubation at 37 °C. Every 24 h, 1 µL of αS solution was passaged to seed 60 µL of fresh soluble monomeric αS solution. The seeding cycle was repeated for five days, after which the ThT signal was measured for all five passages. For the preparation of PMCA samples of αS in the presence of NS132, a molar ratio of 1:1 (αS:NS132) was maintained. All experiments were performed in triplicate. The reported ThT intensity values are the average of three separate experiments with the error bars representing the standard deviations.

Cc1ccc(NC(=O)c2ccc(NC(=O)c3ccc([N+](=O)[O-])c(NCCc4c[nH]c5ccccc45)n3)c(NCC3CCCCC3)n2)c(OCC(=O)O)n1 [NS132]
change in the volume of the amide peaks of 15N-αS monomer with αS fibers, in words [1]: no significant change | ProteoStat dye intensity (raw), individual trials ([2]; 5 μM αS fibers, ligand 10 uM added after 8 h): 108 and 126 and 118 and 122 and 111 and 132 and 128 and 121 and 105 and 116 and 120 and 113 | reduction of intracellular inclusions of αS (ProteoStat) ([2]; ligand 10 µM added 8 h after 5 µM αS fibers): 47% | ThT intensity of PMCA sample, individual trials (αS fibers (PMCA); Cycle 1, αS:NS132 1:1, before PK treatment): 58 and 56 and 50 | ThT intensity of PMCA sample, individual trials (αS fibers (PMCA); Cycle 2, αS:NS132 1:1): 63 and 49 and 51 | ThT intensity of PMCA sample, individual trials (αS fibers (PMCA); Cycle 3, αS:NS132 1:1): 57 and 62 and 53 | ThT intensity of PMCA sample, individual trials (αS fibers (PMCA); Cycle 4, αS:NS132 1:1): 60 and 48 and 64 | ThT intensity of PMCA sample, individual trials (αS fibers (PMCA); Cycle 5, αS:NS132 1:1): 86 and 68 and 66 | change in ThT intensity of PMCA samples, in words (αS fibers (PMCA); equimolar ratio, up to cycle five): did not observe any significant change
